Assays:
[1] = for mass density: 348.15 K, 101.33 kPa, Liquid, Vibrating tube method; for Normal melting temperature: Crystal, DTA
[2] = Molar enthalpy of transition or fusion; conditions: Crystal; DSC
[3] = Boiling temperature at pressure P; conditions: Liquid, Ebulliometric method (Recirculating still)

O=[N+]([O-])c1ccc(Cl)c(Cl)c1 [3,4-dichloro-1-nitrobenzene]
Conditions | Molar enthalpy of transition or fusion [kcal/mol] | Normal melting temperature [°C] | mass density [kg/m3]
[1] | – | 42.2 | 1533
[2] | 4.24 | – | –

[3]
Conditions | Boiling temperature at pressure P [°C]
3.01 kPa | 143.59
4.22 kPa | 151.87
4.98 kPa | 156.10
5.82 kPa | 160.09
6.97 kPa | 164.90
7.4 kPa | 166.54
9.08 kPa | 172.28
9.77 kPa | 174.29
11.5 kPa | 178.94
12.15 kPa | 180.66
13.41 kPa | 183.46
15.01 kPa | 186.98
16.24 kPa | 189.28
17.48 kPa | 191.66
19.68 kPa | 195.37
21.06 kPa | 197.53
24.35 kPa | 202.28
25.56 kPa | 203.78
26.76 kPa | 205.32
31.46 kPa | 210.79
34.27 kPa | 213.8
36.87 kPa | 216.33
41.72 kPa | 220.8
45.99 kPa | 224.32
51.49 kPa | 228.52
55.34 kPa | 231.23
61.61 kPa | 235.37
65.28 kPa | 237.58
70.2 kPa | 240.51
74.34 kPa | 242.70
79.67 kPa | 245.50
83.95 kPa | 247.64
89.76 kPa | 250.37
94.77 kPa | 252.61
98.14 kPa | 254.08
101.3 kPa | 255.44

O=[N+]([O-])c1cccc(Cl)c1Cl [1,2-dichloro-3-nitrobenzene]
Conditions | Molar enthalpy of transition or fusion [kcal/mol] | Normal melting temperature [°C] | mass density [kg/m3]
[1] | – | 61.8 | 1533
[2] | 5.33 | – | –

[3]
Conditions | Boiling temperature at pressure P [°C]
3.26 kPa | 148.61
3.72 kPa | 151.73
4.07 kPa | 153.89
5.48 kPa | 161.26
6.14 kPa | 164.16
7.17 kPa | 168.22
8.84 kPa | 174
10.02 kPa | 177.31
11.41 kPa | 180.98
12.61 kPa | 183.86
13.71 kPa | 186.30
15.55 kPa | 190.1
16.52 kPa | 191.88
18.33 kPa | 195.16
20.52 kPa | 198.69
21.66 kPa | 200.30
22.76 kPa | 201.89
25.1 kPa | 205.06
27.58 kPa | 208.17
30.63 kPa | 211.69
35.11 kPa | 216.38
40.91 kPa | 221.76
46.97 kPa | 226.77
50.86 kPa | 229.71
54.85 kPa | 232.54
57.81 kPa | 234.64
61.11 kPa | 236.77
63.43 kPa | 238.11
65.25 kPa | 239.22
70.98 kPa | 242.53
76.92 kPa | 245.8
80.62 kPa | 247.66
85.76 kPa | 250.19
91.3 kPa | 252.79
96.08 kPa | 254.94
101.3 kPa | 257.18

Reference: the NIST ThermoML archive (doi:10.1016/j.fluid.2014.01.034)
